Results taken from ChEMBL document CHEMBL5653631, “A Potent and Selective ULK1 Inhibitor Suppresses Autophagy and Sensitizes Cancer Cells to Nutrient Stress” (iScience, 2018).
One block for each molecule: values may come before it.

Assays:
[1] = molecular target: Calcium/calmodulin-dependent protein kinase kinase 2 (Homo sapiens) (UniProt Q96RR4); experiment: Inhibition of human recombinant CaMKK2 at 500 nM in presence of ATP by radiometric assay relative to control
[2] = molecular target: Serine/threonine-protein kinase ULK1 (Homo sapiens, UniProt O75385); experiment: Inhibition of ULK1 phosphorylation at Ser15 residue in HEK293 cells incubated for 1 hr by chemiluminescence based immunoblotting analysis; assay type: cell-based, HEK293T
[3] = molecular target: Insulin receptor-related protein (Homo sapiens) (UniProt P14616); experiment: Inhibition of human recombinant IRR at 15 nM in presence of ATP by radiometric assay relative to control
[4] = molecular target: Serine/threonine-protein kinase MARK2 (Homo sapiens) (UniProt Q7KZI7); experiment: Inhibition of human recombinant MARK2 at 15 nM in presence of ATP by radiometric assay relative to control
[5] = molecular target: Serine/threonine-protein kinase PAK 6 (Homo sapiens) (UniProt Q9NQU5); experiment: Inhibition of human recombinant PAK6 at 15 nM in presence of ATP by radiometric assay relative to control
[6] = molecular target: T1, MAP kinase-activated protein kinase 5 (Homo sapiens) (UniProt Q8IW41); experiment: Inhibition of human recombinant MAPKAPK5 at 15 nM related to control ULK1
T1 sequence (whole entry): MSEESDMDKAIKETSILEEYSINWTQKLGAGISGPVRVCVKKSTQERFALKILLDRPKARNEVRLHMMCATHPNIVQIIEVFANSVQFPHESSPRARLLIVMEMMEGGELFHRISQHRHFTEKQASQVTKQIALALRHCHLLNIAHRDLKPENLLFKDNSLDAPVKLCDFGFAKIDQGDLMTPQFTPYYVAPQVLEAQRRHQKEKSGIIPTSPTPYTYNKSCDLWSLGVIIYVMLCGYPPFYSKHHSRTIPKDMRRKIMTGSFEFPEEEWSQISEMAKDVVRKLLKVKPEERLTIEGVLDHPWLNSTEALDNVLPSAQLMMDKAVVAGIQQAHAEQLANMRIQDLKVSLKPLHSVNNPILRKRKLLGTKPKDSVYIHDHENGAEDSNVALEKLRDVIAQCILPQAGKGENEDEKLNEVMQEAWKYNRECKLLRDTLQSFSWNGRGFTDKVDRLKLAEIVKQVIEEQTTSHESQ

[7] = molecular target: T2, Discoidin domain-containing receptor 2 (Homo sapiens) (UniProt Q16832); experiment: Inhibition of human recombinant DDR2 at 40 nM in presence of ATP by radiometric assay relative to control
T2 sequence (whole entry): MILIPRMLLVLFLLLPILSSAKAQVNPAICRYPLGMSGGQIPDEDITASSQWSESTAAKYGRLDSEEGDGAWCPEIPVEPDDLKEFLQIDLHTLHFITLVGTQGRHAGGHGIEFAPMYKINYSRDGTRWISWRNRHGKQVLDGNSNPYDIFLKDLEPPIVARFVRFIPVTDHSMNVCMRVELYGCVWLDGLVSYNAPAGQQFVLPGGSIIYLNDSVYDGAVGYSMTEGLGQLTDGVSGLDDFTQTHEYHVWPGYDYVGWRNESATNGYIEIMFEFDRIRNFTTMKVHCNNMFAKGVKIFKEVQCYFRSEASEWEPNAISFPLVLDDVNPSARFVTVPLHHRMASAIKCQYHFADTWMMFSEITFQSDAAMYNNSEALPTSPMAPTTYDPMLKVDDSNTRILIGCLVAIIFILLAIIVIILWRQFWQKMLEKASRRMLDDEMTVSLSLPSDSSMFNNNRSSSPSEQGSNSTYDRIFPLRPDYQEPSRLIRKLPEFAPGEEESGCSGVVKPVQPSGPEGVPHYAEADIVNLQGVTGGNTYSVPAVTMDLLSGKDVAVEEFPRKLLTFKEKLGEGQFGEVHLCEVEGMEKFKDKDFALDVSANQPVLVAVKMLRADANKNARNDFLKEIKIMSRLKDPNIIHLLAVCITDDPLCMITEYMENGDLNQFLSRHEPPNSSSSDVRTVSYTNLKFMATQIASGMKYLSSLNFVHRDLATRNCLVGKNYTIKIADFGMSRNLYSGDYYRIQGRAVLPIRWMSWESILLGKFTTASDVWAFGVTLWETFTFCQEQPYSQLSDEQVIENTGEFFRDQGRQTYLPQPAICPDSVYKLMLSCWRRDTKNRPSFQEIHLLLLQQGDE

[8] = molecular target: Rho-associated protein kinase 1 (Homo sapiens) (UniProt Q13464); experiment: Inhibition of human recombinant ROCK1 at 40 nM in presence of ATP by radiometric assay relative to control
[9] = molecular target: SAFB-like transcription modulator (Homo sapiens) (UniProt Q9NWH9); experiment: Inhibition of human recombinant MET at 40 nM related to control ULK1
[10] = molecular target: Protein kinase C delta type (Homo sapiens) (UniProt Q05655); experiment: Inhibition of human recombinant PKCd at 40 nM related to control ULK1
[11] = molecular target: T3, Serine/threonine-protein kinase D3 (Homo sapiens) (UniProt O94806); experiment: Inhibition of human recombinant PKD3 at 40 nM related to control ULK1
T3 sequence (whole entry): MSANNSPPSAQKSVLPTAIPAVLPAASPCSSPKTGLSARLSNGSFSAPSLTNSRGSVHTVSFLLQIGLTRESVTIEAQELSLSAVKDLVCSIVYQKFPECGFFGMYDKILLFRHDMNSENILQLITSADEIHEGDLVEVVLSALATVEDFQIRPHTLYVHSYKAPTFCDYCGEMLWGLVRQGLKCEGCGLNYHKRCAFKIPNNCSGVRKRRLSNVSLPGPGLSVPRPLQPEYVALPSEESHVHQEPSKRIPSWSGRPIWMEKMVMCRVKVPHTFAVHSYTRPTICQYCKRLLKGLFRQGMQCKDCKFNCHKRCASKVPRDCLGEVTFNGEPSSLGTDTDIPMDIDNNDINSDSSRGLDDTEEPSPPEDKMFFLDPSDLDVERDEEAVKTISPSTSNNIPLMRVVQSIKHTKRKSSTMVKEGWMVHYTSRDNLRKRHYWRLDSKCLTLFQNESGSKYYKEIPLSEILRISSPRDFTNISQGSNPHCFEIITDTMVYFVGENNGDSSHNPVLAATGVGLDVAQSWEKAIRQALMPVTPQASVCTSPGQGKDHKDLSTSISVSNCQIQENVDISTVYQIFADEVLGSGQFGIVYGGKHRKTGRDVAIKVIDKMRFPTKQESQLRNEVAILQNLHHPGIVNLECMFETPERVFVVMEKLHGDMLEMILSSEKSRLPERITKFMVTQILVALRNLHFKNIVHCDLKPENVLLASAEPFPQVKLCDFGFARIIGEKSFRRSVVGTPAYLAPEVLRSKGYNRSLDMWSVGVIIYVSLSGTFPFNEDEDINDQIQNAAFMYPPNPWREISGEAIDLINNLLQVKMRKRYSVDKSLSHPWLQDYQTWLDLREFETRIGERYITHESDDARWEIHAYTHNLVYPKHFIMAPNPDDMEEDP

[12] = molecular target: Serine/threonine-protein kinase 25 (Homo sapiens) (UniProt O00506); experiment: Inhibition of human recombinant YSK1 at 40 nM related to control ULK1
Chain of Serine/threonine-protein kinase 25 (Homo sapiens) (O00506 whole entry, looked up): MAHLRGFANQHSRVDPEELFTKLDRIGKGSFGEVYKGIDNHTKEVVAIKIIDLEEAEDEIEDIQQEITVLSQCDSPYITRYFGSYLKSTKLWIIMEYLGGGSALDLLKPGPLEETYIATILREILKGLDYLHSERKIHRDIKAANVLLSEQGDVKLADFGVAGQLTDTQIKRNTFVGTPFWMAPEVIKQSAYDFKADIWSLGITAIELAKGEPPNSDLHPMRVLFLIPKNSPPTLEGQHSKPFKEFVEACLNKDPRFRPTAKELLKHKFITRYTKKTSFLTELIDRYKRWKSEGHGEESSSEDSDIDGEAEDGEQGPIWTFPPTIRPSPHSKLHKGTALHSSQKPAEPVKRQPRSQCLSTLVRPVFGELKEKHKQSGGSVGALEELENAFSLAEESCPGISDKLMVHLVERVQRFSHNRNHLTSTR

Chain of Serine/threonine-protein kinase ULK1 (O75385 whole entry): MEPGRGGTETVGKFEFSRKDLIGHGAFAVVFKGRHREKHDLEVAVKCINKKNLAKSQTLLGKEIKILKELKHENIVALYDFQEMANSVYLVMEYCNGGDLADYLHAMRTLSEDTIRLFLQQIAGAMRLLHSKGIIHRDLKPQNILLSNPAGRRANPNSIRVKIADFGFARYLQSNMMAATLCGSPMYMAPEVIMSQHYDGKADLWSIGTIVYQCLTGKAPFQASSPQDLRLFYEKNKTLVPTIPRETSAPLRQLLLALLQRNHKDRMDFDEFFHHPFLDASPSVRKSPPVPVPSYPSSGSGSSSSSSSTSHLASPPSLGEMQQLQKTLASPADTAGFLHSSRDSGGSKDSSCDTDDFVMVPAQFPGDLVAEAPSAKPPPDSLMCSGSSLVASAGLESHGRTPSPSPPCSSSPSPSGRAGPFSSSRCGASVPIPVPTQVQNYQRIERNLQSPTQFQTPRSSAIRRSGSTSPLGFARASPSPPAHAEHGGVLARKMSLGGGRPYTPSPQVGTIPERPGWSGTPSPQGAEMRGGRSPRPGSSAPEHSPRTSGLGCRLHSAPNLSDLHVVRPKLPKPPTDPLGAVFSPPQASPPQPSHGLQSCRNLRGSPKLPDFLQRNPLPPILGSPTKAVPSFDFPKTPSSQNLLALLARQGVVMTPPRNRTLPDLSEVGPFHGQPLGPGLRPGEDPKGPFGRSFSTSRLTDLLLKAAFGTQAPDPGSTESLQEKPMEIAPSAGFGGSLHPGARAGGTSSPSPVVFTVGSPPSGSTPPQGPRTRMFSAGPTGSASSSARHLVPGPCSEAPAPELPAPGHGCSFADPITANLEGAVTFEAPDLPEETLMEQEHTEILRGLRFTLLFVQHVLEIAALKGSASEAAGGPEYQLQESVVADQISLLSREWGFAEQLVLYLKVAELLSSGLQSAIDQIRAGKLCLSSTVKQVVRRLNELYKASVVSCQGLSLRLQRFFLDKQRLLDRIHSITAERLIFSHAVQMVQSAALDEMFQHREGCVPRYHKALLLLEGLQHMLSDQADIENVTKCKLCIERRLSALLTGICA
Chain of Insulin receptor-related protein (Homo sapiens) (P14616 27-742 limits assumed): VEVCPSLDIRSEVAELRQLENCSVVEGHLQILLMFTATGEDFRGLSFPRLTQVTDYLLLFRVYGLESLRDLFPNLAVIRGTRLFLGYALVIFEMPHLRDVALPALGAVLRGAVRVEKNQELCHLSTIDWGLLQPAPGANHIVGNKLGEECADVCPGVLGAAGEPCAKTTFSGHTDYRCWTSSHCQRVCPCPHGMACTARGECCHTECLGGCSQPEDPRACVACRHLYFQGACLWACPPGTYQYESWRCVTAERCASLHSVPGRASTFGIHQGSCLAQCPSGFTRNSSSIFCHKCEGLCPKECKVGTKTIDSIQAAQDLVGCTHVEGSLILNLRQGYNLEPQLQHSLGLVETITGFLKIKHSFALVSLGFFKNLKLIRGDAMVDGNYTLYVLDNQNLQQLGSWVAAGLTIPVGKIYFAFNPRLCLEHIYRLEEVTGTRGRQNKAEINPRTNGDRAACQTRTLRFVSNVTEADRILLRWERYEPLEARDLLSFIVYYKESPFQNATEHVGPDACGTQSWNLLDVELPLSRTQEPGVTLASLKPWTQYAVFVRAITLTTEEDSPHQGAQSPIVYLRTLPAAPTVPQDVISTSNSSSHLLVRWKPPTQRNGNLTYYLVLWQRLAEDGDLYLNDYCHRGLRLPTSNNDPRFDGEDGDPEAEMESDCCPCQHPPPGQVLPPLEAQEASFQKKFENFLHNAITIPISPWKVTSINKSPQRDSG
Chain of Insulin receptor-related protein (Homo sapiens) (P14616 747-1297 limits assumed): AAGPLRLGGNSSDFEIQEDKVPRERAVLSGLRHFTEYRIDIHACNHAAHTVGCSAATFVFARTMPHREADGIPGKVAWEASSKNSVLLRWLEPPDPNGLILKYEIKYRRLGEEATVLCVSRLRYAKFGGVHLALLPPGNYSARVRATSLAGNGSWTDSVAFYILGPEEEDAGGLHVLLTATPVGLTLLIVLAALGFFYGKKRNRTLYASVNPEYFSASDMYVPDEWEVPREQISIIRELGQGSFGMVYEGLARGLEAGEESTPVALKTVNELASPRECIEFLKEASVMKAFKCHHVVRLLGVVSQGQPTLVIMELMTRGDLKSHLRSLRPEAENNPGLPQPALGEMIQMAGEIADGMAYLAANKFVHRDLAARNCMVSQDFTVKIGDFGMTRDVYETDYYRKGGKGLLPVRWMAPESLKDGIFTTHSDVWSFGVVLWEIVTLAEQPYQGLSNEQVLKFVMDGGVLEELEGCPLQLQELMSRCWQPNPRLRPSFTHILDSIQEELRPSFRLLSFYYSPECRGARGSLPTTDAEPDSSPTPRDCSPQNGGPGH
Chain of Calcium/calmodulin-dependent protein kinase kinase 2 (Homo sapiens) (Q96RR4 2-588 limits assumed): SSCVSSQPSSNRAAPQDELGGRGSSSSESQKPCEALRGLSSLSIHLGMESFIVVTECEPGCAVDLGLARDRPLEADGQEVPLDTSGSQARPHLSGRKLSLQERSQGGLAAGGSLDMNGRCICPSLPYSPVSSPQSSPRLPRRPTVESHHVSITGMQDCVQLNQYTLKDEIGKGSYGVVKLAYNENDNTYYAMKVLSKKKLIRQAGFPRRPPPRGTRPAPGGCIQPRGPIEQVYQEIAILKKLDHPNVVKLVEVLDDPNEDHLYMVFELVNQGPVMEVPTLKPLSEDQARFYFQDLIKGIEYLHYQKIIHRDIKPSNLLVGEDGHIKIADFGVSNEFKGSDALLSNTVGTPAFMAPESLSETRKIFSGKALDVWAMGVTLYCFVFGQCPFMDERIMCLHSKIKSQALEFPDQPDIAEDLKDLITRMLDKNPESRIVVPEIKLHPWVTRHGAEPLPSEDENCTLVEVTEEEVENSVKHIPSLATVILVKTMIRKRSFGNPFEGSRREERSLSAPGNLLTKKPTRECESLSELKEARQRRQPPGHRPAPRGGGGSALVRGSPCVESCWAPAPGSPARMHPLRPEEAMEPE
Chain of Protein kinase C delta type (Homo sapiens) (Q05655 whole entry, looked up): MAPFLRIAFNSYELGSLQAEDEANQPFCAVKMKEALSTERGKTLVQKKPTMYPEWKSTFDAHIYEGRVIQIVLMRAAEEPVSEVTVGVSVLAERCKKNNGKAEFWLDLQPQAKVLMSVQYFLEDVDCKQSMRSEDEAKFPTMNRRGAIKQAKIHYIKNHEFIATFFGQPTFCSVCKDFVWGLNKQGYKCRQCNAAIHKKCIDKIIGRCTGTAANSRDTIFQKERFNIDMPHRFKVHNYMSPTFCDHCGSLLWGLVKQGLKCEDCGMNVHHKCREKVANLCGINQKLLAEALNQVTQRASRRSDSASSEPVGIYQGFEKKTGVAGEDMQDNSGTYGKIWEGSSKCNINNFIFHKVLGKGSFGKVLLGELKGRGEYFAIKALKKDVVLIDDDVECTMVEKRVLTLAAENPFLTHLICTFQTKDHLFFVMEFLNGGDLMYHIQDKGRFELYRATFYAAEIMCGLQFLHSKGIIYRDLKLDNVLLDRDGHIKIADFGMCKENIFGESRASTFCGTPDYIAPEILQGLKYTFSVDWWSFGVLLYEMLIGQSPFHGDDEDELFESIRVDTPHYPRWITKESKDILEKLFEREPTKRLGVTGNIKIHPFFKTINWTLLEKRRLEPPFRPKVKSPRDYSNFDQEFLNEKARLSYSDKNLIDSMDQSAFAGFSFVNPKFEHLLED
Chain of SAFB-like transcription modulator (Homo sapiens) (Q9NWH9 whole entry): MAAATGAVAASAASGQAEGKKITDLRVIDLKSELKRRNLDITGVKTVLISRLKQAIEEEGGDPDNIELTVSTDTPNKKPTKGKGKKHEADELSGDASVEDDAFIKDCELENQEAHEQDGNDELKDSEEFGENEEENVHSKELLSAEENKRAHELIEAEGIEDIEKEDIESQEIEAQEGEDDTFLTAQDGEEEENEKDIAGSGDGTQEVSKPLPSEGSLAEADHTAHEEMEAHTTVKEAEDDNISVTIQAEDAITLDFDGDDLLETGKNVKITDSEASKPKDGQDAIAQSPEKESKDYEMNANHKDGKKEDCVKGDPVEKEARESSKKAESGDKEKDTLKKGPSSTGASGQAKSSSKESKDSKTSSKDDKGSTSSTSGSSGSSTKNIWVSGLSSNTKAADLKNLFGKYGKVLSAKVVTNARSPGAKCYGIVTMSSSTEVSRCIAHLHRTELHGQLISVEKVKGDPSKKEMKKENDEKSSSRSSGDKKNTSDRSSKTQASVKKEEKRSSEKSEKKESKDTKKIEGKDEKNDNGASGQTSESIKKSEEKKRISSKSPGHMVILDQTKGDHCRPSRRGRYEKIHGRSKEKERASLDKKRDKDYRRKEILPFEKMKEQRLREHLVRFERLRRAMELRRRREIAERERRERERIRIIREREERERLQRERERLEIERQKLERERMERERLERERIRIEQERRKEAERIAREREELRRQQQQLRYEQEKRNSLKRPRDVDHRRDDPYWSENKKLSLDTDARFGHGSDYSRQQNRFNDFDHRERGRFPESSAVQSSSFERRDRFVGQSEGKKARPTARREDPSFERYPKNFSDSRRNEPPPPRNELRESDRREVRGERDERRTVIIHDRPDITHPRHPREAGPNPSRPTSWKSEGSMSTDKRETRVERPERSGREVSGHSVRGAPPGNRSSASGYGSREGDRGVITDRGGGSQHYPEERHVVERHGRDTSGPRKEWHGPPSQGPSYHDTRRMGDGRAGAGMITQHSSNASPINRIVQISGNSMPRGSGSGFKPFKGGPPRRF

inhibition [1]: 4%
Structure (SMILES): CNC(=O)c1ccccc1Oc1nc(Nc2cc(OC)c(OC)c(OC)c2)ncc1Br

EC50 [2]: 83 nM
inhibition [3]: 2%
inhibition [4]: 47%
inhibition [5]: 0%
fold change (FC) [6]: 0
Structure (SMILES): CC(C)[C@H](NC(=O)c1cc(-c2cnn3cc(-c4ccc(OCCN5CCCCC5)cc4)cnc23)cs1)C(F)(F)F

inhibition [7]: 0%
inhibition [8]: 0%
fold change (FC) [9]: 0.22
fold change (FC) [10]: 0.04
fold change (FC) [11]: 0.1
fold change (FC) [12]: 0
Structure (SMILES): O=C(N[C@@H](C1CC1)C(F)(F)F)c1cc(-c2cnn3cc(-c4ccc(F)cc4)cnc23)cs1
